Results published in paper PMC11768629, “Potential Interaction of Pinocembrin with Drug Transporters and Hepatic Drug-Metabolizing Enzymes” (Pharmaceuticals, 2025).
Read-outs that look alike come from different tables or passages of the source.

Assays:
[1] = molecular target: T1, CYP2C19 (Homo sapiens, UniProt P33261); test: Cell-free CYP450 inhibition assay, CYP2C19; type: biochemical; conditions: cell-free fluorescent probe assay
T1 construct: purchased Life Technologies
Method: To determine whether pinocembrin influences the catalytic activity of CYP450 enzymes, fluorescent probe reaction assays were performed using varying concentrations of pinocembrin. […] In addition, molecular docking was conducted to better understand the binding mode and interactions between pinocembrin and human CYP2C19.
The CYP450 inhibitory activity of pinocembrin was determined using a P450 screening kit (Life Technologies; Carlsbad, CA, USA). Varied concentrations of pinocembrin were prepared in methanol. […] The fluorescence intensities were monitored every minute for 60 min at room temperature. The percentage of inhibition was calculated according to the following equation: % Inhibition=(1−X−B/A−B)×100% where X is the fluorescence intensity observed in the presence of pinocembrin.

[2] = molecular target: T2, hOCT1 (Homo sapiens, UniProt O15245); test: Cis-inhibition assay, 3H-MPP+ uptake in hOCT1-CHO-K1 cells; type: cell-based; conditions: pinocembrin
T2 construct: host or cells: CHO-K1
Method: (§1) Next, the effects of pinocembrin on the transport function of renal drug transporters, including hOAT1, hOAT3, hOCT1, hOCT2, hMATE1, and hMATE2, were determined.
(§2) A cell monolayer comprising hOAT1-MDCK, hOAT3-MDCK, hOCT1-CHO-K1, hOCT2-CHO-K1, hMATE1-CHO-K1, hMATE2-CHO-K1, and mock cells were utilized for the uptake experiments. The cells were washed three times with a buffer containing (in mM) 140 NaCl, 5 KCl, 0.4 MgSO4, 0.5 MgCl2, 1 CaCl2, 0.3 Na2HPO4, 0.4 KH2PO4, 6 D-glucose, and 4 NaHCO3 at pH 7.4 and incubated at 37 °C for 15 min. After incubation, the hOAT1-MDCK and hOAT3-MDCK cells were incubated for 10 min with ^3H-PAH and ^3H-estrone sulfate, a substrate of hOAT1 and hOAT3, respectively. The hOCT1-CHO-K1 and hOCT2-CHO-K1 cells were incubated with ^3H-MPP^+, a substrate of OCT1 and OCT2, for five minutes. The functions of MATE1 and MATE2 were determined by incubating the hMATE1-CHO-K1 and hMATE2-CHO-K1 cells with a buffer containing ^3H-MPP^+, a substrate of MATE1 and MATE2, at pH 8.5 for five minutes. The cells were washed three times with an ice-cold buffer to stop the transport function. The cells were lyzed with 0.4 N NaOH for at least four hours. The samples were collected and transferred to vials containing a liquid scintillation cocktail to measure radioactivity by a β-counter (Packard BioScience, Wellesley, MA, USA). […]

[3] = molecular target: T3, hOAT1 (Homo sapiens, UniProt Q4U2R8); test: Pinocembrin treatment followed by 3H-PAH accumulation in hOAT1-MDCK cells; type: cell-based; conditions: 1, 10 and 50 μM for 24 h, concentration-dependent, compared with vehicle
T3 construct: host or cells: MDCK
T3 sequence (Q4U2R8 1-563): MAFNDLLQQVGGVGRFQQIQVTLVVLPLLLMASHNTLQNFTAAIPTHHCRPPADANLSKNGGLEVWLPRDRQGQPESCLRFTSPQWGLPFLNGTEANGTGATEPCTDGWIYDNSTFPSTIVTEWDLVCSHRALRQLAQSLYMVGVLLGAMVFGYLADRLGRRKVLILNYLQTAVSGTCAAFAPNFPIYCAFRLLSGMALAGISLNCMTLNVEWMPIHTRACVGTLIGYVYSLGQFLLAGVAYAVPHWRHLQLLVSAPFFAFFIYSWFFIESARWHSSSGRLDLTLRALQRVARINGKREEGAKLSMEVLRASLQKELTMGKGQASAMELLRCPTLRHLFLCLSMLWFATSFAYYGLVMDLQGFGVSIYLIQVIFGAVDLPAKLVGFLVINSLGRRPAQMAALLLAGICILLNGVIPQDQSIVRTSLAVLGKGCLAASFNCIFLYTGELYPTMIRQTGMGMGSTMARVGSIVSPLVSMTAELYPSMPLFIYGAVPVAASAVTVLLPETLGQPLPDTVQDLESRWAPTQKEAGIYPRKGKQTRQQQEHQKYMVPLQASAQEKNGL
Method: The hOAT1-MDCK cells and hOAT3-MDCK cells were treated with 1, 10, and 50 μM pinocembrin for 24 h, followed by a measurement of ^3H-PAH and ^3H-estrone sulfate cellular accumulation. […] The inhibitory effect of pinocembrin occurred in a concentration-dependent manner.
as §2, with “The cells were lyzed with 0.4 N NaOH for at least four hours.” left out

[4] = molecular target: T4, P-gp (Homo sapiens, UniProt P08183); test: P-gp-mediated 3H-digoxin transepithelial transport in Caco-2 cell monolayers; type: cell-based; conditions: 10 µM pinocembrin, 0-120 min, compared with vehicle control
T4 construct: Caco-2 cell monolayers, which express both P-gp and BCRP; host or cells: Caco-2
Method: The interactions of pinocembrin with P-gp and BCRP were determined by the measurement of P-gp-mediated ^3H-digoxin transport and BCRP-mediated ^3H-estrone sulfate transport in Caco-2 cell monolayers, which express both P-gp and BCRP [20]. The apical sides of the Caco-2 cell monolayers were incubated with a buffer containing ^3H-digoxin alone, ^3H-digoxin plus 10 µM pinocembrin or ^3H-digoxin plus 100 µM verapamil (P-gp inhibitor).
P-gp- and BCRP-mediated transport were measured by the transepithelial transport of their substrates (^3H-digoxin for P-gp and ^3H-estrone sulfate for BCRP) in Caco-2 cell monolayers. […] Caco-2 cells were cultured on membrane inserts (Corning Inc., Corning, NY, USA) for 21 days. […] The basolateral side was replaced with a transport buffer. The sample from the basolateral side was transferred to vials containing a liquid scintillation cocktail to measure radioactivity by a β-counter (Packard BioScience, Wellesley, MA, USA).

[5] = tested on: CYP3A4; conditions: cited from earlier work
[6] = tested on: CYP2C8; set-up: method as in PMID 34069400, doi:10.5562/cca3652, PMID 35721953; conditions: cited from earlier work
[7] = molecular target: T5, hOAT3 (Homo sapiens, UniProt Q8TCC7); test: Cis-inhibition assay, 3H-estrone sulfate uptake in hOAT3-MDCK cells; type: cell-based; conditions: 10 µM pinocembrin, compared with vehicle control
T5 construct: host or cells: MDCK
T5 sequence (Q8TCC7 1-542): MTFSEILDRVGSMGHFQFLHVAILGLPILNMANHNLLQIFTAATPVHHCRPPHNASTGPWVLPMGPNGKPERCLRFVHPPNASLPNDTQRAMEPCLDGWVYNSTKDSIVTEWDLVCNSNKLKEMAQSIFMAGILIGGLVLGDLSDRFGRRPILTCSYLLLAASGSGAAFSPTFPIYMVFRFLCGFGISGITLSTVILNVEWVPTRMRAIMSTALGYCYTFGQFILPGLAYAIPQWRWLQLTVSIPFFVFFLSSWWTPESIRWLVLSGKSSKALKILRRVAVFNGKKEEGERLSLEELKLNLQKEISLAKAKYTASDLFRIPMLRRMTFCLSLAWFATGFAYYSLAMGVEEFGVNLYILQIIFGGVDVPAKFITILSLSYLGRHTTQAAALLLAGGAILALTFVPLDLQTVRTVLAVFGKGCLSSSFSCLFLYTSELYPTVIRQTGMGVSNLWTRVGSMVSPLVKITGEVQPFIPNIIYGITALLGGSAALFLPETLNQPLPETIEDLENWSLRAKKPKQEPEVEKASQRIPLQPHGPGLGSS
Method: as §1, §2

[8] = tested on: P-gp; conditions: cited from earlier work

T1 sequence (P33261 whole entry): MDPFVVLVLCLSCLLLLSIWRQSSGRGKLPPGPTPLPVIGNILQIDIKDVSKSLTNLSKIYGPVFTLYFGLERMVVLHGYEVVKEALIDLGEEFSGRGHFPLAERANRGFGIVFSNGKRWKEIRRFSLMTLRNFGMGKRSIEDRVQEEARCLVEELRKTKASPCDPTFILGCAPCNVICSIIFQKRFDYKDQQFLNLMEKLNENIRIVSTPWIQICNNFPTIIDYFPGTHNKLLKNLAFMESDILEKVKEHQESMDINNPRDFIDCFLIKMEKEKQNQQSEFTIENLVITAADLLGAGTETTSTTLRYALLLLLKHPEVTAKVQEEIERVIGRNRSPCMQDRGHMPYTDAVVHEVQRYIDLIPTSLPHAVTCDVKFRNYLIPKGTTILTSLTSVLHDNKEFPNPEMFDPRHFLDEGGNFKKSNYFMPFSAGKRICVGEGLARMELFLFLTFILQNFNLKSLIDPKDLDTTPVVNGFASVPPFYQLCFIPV
T2 sequence (O15245 whole entry): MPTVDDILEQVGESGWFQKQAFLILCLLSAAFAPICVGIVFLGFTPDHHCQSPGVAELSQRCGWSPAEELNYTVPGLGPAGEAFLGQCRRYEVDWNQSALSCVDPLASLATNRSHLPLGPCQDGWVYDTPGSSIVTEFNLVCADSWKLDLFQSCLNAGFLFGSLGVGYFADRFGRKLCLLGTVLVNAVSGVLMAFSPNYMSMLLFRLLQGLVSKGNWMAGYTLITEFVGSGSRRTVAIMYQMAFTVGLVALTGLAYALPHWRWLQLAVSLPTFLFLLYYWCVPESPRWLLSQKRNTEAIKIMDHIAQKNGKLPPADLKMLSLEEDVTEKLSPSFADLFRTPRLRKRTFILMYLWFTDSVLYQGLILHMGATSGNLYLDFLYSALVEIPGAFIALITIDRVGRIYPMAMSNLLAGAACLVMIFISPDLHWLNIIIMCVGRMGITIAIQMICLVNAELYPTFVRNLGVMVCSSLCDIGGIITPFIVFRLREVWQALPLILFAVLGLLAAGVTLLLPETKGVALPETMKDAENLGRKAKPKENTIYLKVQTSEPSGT
T4 sequence (P08183 whole entry): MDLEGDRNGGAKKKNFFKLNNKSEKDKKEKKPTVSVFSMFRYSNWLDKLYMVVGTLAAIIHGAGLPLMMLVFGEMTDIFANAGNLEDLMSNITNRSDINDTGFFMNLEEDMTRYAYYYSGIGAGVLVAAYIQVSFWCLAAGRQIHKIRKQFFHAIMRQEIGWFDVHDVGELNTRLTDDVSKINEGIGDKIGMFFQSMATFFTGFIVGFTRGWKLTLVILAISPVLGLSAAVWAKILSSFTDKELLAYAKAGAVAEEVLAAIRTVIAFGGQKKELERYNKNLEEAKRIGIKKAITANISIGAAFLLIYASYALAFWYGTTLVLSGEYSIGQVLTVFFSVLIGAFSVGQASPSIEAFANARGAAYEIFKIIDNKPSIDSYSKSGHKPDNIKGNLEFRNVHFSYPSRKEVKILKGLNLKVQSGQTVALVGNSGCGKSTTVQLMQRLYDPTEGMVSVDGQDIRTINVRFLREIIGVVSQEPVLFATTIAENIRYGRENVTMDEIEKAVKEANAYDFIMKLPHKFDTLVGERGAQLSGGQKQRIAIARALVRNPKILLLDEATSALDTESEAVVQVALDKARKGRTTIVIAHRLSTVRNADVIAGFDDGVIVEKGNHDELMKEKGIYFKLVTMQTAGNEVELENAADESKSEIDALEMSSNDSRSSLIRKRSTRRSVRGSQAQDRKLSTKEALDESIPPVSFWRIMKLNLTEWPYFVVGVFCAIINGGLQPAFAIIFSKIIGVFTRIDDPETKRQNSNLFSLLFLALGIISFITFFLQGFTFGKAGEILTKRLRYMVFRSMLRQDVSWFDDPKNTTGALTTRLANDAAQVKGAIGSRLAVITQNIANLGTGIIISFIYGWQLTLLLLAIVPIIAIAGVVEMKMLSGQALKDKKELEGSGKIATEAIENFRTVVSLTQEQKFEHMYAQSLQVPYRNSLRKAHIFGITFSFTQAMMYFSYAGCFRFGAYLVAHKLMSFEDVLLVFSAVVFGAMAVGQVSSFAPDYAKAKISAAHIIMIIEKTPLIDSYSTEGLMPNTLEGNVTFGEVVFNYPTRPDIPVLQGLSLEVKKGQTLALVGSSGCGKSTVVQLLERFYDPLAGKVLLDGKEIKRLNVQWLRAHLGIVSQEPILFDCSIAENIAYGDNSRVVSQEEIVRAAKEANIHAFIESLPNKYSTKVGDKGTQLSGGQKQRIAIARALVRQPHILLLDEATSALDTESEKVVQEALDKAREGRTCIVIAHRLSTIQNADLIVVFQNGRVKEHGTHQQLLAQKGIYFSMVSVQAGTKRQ

- IC50 ([1]; BACULOSOMES): 4.5 µM
- IC50 at 60 min ([1]; human, CYP2C19 BACULOSOMES (cell-free recombinant enzyme)): 4.49 µM
- hOCT1-mediated uptake of 3H-MPP+ [2]: did not alter
- 3H-PAH accumulation after pinocembrin treatment [3]: significantly decreased
- transport of 3H-digoxin from the apical to basolateral side [4]: did not alter
- 3H-estrone sulfate cellular accumulation [7]: significantly decreased
SMILES: O=C1C[C@@H](c2ccccc2)Oc2cc(O)cc(O)c21 [pinocembrin]
- effect on the activity of CYP3A4 [5]: inhibits the activities
- effect on the activity of CYP3A4 ([5]; concentrations of 1–5 µM): shows an inhibitory effect
- effect on the activity of CYP2C8 [6]: does not affect
- effect on the P-gp in the blood–brain barrier (BBB) [8]: little effect
- effect on the function of P-gp [8]: did not inhibit
